{
  "source": "patent US10940201B2",
  "about": "“Nucleic acid derivative having immunostimulatory activity” (Shionogi & Co., Ltd., priority 2015, dated 2021)",
  "key": {"TRP2-specific CTL": {"tested_on": "TRP2-specific CTL", "assay": "CTL inducibility of TRP2 peptide vaccine with adjuvant (tetramer staining)", "assay_type": "in vivo, C57BL/6JJcl mice", "method": "C57BL/6JJcl mice (6 to 8 weeks old) were purchased from CLEA Japan, Inc.\nan adjuvant of the present invention or the well-known CpG ODN\nThe specific immunity was induced by vaccinating a mouse twice at 7 days intervals. Each vaccine was that 100 μg of TRP2 peptide, and 1.57 or 4.71 nmol of an adjuvant of the present invention or well-known CpG ODN, were dissolved in 1×PBS. 100 μL of the vaccine was administered subcutaneous injection on the flank of a mouse.\n100 μL of the emulsion vaccine was administered subcutaneous injection on the flank of a mouse twice at 7 days intervals.\nOn 7 days after second vaccination, the blood was collected, red blood cells was removed by BD Pharm Lyse (BD pharmingen), and the white blood cells were suspended in FACS buffer (1% fetal bovine serum, 2 mM PBS with EDTA). Anti-mouse CD16/32 monoclonal antibody (BioXcell) was added thereto, and Fc receptor blocking was carried out at 4° C. for 30 minutes. […] Then, staining was carried out with DAPI (Invitrogen) and the cells were washed twice with FACS buffer. It was resuspended in FACS buffer and analyzed by FACS verse Flow Cytometer (BD bioscience) and FAC Suite software (BD bioscience). For analysis, after DAPI negative fraction was gated, white blood cells fraction were provided using forward and side-way scattering as indicators. In the white blood cells fraction, both positive cells of Alexa 647-CD8 and PE-H-2Kb Tetramer were defined as CTLs. CTL ratio in white blood cells was used for evaluation.\nAfter calculation of the average CTL inducibility of each group per experiment, the ratio against average value of CTL inducibility of ssCpG ODN, ODN1826 (SEQ-1) or ODN2006 (SEQ-49) as a control was calculated.\nIn the case of an adjuvant comprising ODN1826 (Average of CTL inducibility of the adjuvant group)/(Average of CTL inducibility of the ODN1826 group)=the ratio against average value In the case of an adjuvant comprising ODN2006 (Average of CTL inducibility of the adjuvant group)/(Average of CTL inducibility of the ODN2006 group)=the ratio against average value\nCTL inducibility of each adjuvant was shown when CTL inducibility of ssCpG ODN was taken as 1, so the bigger value means the higher CTL inducibility."}, "B16F10 cells": {"tested_on": "B16F10 cells", "assay": "Anti-tumor effect of TRP2 peptide vaccine using an adjuvant", "assay_type": "in vivo, mouse", "method": "After immunization by TRP2 peptide vaccine, B16F10 cells (ATTC) which is mouse melanoma expressing TRP2 protein was subcutaneously transplanted to evaluate anti-tumor effect. […] The major and minor axes of the engrafted tumor were measured every 2 to 3 days, and the tumor volume was calculated by the formula: (major axis×minor axis^2)/2 Calculation method for indicators of anti-tumor effect For the adjuvant comprising ODN1826 100·(average tumor volume of adjuvant group)/(average tumor volume of ODN1826 group) For the adjuvant comprising ODN2006 100·(average tumor volume of adjuvant group)/(average tumor volume of ODN2006 group)"}},
  "data": [
    {"substance": "Amph1826 [SEQ-2]", "values": [
      {"measurement": "Ratio of average value of antigen-specific CTL", "setting": "TRP2-specific CTL; Table 34, 1.57 nmol/head, ODN1826 (SEQ-1) group = 1", "value": 1.68},
      {"measurement": "Ratio of average value of antigen-specific CTL", "setting": "TRP2-specific CTL; Table 36, 1.57 nmol/head (Montanide 100 μL), ODN1826 (SEQ-1) group = 1", "value": 3.23},
      {"measurement": "Ratio of average value of antigen-specific CTL", "setting": "TRP2-specific CTL; Table 37, 1.57 nmol/head, ODN1826 (SEQ-1) group = 1", "value": 3.11},
      {"measurement": "CTL inducibility (in words)", "setting": "TRP2-specific CTL; adjuvants comprising ODN1826", "value": "higher CTL inducibility than ODN1826"},
      {"measurement": "tumor inhibition rate compared to ODN1826", "setting": "B16F10 cells; Day 12 after transplantation, Result 4-B, FIG. 3", "value": "about 3.5%"},
      {"measurement": "tumor inhibition rate compared to ODN1826", "setting": "B16F10 cells; Day 12 after transplantation, Result 6-B, FIG. 4", "value": 64.3, "unit": "%"},
      {"measurement": "tumor inhibition rate compared to ODN1826", "setting": "B16F10 cells; Day 14 after transplantation, Result 7-B, FIG. 5", "value": "about 72.6%"},
      {"measurement": "Tumor inhibition rate (Day 14 after transplantation)", "setting": "B16F10 cells; Table 37, 1.57 nmol/head, compared to ODN1826 (SEQ-1)", "value": 72.64, "unit": "%"}
    ]},
    {"substance": "ODN2006 [SEQ-49]", "values": [
      {"measurement": "Ratio of average value of antigen-specific CTL", "setting": "TRP2-specific CTL; Table 38, 4.71 nmol/head, ODN2006 (SEQ-49) group = 1", "value": 1.00},
      {"measurement": "Ratio of average value of antigen-specific CTL", "setting": "TRP2-specific CTL; Table 39, 4.71 nmol/head, ODN2006 (SEQ-49) group = 1", "value": 1.00},
      {"measurement": "Ratio of average value of antigen-specific CTL", "setting": "TRP2-specific CTL; Table 40, 4.71 nmol, ODN2006 (SEQ-49) group = 1", "value": 1.00},
      {"measurement": "Ratio of average value of antigen-specific CTL", "setting": "TRP2-specific CTL; Table 41, 4.71 nmol, ODN2006 (SEQ-49) group = 1", "value": 1.00},
      {"measurement": "Ratio of average value of antigen-specific CTL", "setting": "TRP2-specific CTL; Table 42, 4.71 nmol, ODN2006 (SEQ-49) group = 1", "value": 1.00},
      {"measurement": "Ratio of average value of antigen-specific CTL", "setting": "TRP2-specific CTL; Table 43, 4.71 nmol, ODN2006 (SEQ-49) group = 1", "value": 1.00},
      {"measurement": "Ratio of average value of antigen-specific CTL", "setting": "TRP2-specific CTL; Table 44, 4.71 nmol, ODN2006 (SEQ-49) group = 1", "value": 1.00},
      {"measurement": "Ratio of average value of antigen-specific CTL", "setting": "TRP2-specific CTL; Table 45, 4.71 nmol, ODN2006 (SEQ-49) group = 1", "value": 1.00},
      {"measurement": "Ratio of average value of antigen-specific CTL", "setting": "TRP2-specific CTL; Table 46, 4.71 nmol, ODN2006 (SEQ-49) group = 1", "value": 1.00},
      {"measurement": "Ratio of average value of antigen-specific CTL", "setting": "TRP2-specific CTL; Table 47, 4.71 nmol, ODN2006 (SEQ-49) group = 1", "value": 1.00},
      {"measurement": "Ratio of average value of antigen-specific CTL", "setting": "TRP2-specific CTL; Table 48, 4.71 nmol, ODN2006 (SEQ-49) group = 1", "value": 1.00},
      {"measurement": "Ratio of average value of antigen-specific CTL", "setting": "TRP2-specific CTL; Table 49, 4.71 nmol, ODN2006 (SEQ-49) group = 1", "value": 1.00},
      {"measurement": "Ratio of average value of antigen-specific CTL", "setting": "TRP2-specific CTL; Table 50, 4.71 nmol, ODN2006 (SEQ-49) group = 1", "value": 1.00},
      {"measurement": "Ratio of average value of antigen-specific CTL", "setting": "TRP2-specific CTL; Table 51, 4.71 nmol, ODN2006 (SEQ-49) group = 1", "value": 1.00},
      {"measurement": "Ratio of average value of antigen-specific CTL", "setting": "TRP2-specific CTL; Table 52, 4.71 nmol, ODN2006 (SEQ-49) group = 1", "value": 1.00},
      {"measurement": "Ratio of average value of antigen-specific CTL", "setting": "TRP2-specific CTL; Table 53, 4.71 nmol, ODN2006 (SEQ-49) group = 1", "value": 1.00},
      {"measurement": "Ratio of average value of antigen-specific CTL", "setting": "TRP2-specific CTL; Table 54, 4.71 nmol, ODN2006 (SEQ-49) group = 1", "value": 1.00},
      {"measurement": "Ratio of average value of antigen-specific CTL", "setting": "TRP2-specific CTL; Table 55, 4.71 nmol, ODN2006 (SEQ-49) group = 1", "value": 1.00},
      {"measurement": "Ratio of average value of antigen-specific CTL", "setting": "TRP2-specific CTL; Table 57, 4.71 nmol, ODN2006 (SEQ-49) group = 1", "value": 1.00},
      {"measurement": "Ratio of average value of antigen-specific CTL", "setting": "TRP2-specific CTL; Table 58, 4.71 nmol, ODN2006 (SEQ-49) group = 1", "value": 1.00},
      {"measurement": "Ratio of average value of antigen-specific CTL", "setting": "TRP2-specific CTL; Table 59, 4.71 nmol, ODN2006 (SEQ-49) group = 1", "value": 1.00},
      {"measurement": "Ratio of average value of antigen-specific CTL", "setting": "TRP2-specific CTL; Table 60, 4.71 nmol, ODN2006 (SEQ-49) group = 1", "value": 1.00},
      {"measurement": "Ratio of average value of antigen-specific CTL", "setting": "TRP2-specific CTL; Table 61, 4.71 nmol, ODN2006 (SEQ-49) group = 1", "value": 1.00},
      {"measurement": "Ratio of average value of antigen-specific CTL", "setting": "TRP2-specific CTL; Table 62, 4.71 nmol, ODN2006 (SEQ-49) group = 1", "value": 1.00},
      {"measurement": "Ratio of average value of antigen-specific CTL", "setting": "TRP2-specific CTL; Table 63, 4.71 nmol, ODN2006 (SEQ-49) group = 1", "value": 1.00},
      {"measurement": "Ratio of average value of antigen specific CTL", "setting": "TRP2-specific CTL; Table 64, 4.71 nmol, ODN2006 (SEQ-49) group = 1", "value": 1.00},
      {"measurement": "Ratio of average value of antigen-specific CTL", "setting": "TRP2-specific CTL; Table 67, 4.71 nmol, ODN2006 (SEQ-49) group = 1", "value": 1.00},
      {"measurement": "Ratio of average value of antigen-specific CTL", "setting": "TRP2-specific CTL; Table 68, 4.71 nmol, ODN2006 (SEQ-49) group = 1", "value": 1.00},
      {"measurement": "effect of inhibition on tumor progression of B16F10 cells (in words)", "setting": "B16F10 cells", "value": "little effect of inhibition on tumor progression of B16F10 cells"},
      {"measurement": "Tumor inhibition rate (Day 12 after transplantation)", "setting": "B16F10 cells; Table 41, 4.71 nmol, compared to ODN2006 (SEQ-49)", "value": 0.00, "unit": "%"},
      {"measurement": "Tumor inhibition rate (Day 12 after transplantation)", "setting": "B16F10 cells; Table 42, 4.71 nmol, compared to ODN2006 (SEQ-49)", "value": 0.00, "unit": "%"},
      {"measurement": "Tumor inhibition rate (Day 14 after transplantation)", "setting": "B16F10 cells; Table 43, 4.71 nmol, compared to ODN2006 (SEQ-49)", "value": 0.00, "unit": "%"},
      {"measurement": "Tumor inhibition rate (Day 14 after transplantation)", "setting": "B16F10 cells; Table 45, 4.71 nmol, compared to ODN2006 (SEQ-49)", "value": 0.00, "unit": "%"},
      {"measurement": "Tumor inhibition rate (Day 14 after transplantation)", "setting": "B16F10 cells; Table 46, 4.71 nmol, compared to ODN2006 (SEQ-49)", "value": 0.00, "unit": "%"},
      {"measurement": "Tumor inhibition rate (Day 14 after transplantation)", "setting": "B16F10 cells; Table 48, 4.71 nmol, compared to ODN2006 (SEQ-49)", "value": 0.00, "unit": "%"}
    ]}
  ]
}
